Laboratory results taken from patent US9096543B2, “Nuclear transport modulators and uses thereof” (Karyopharm Therapeutics Inc., priority 2012, dated 2015).
Entries after “also recorded” stand apart in the source; their conditions may differ.

What was measured:
[1] = Brain to plasma ratio (B:P) in mice; format: in vivo; conditions: mouse, brain and plasma, 10 mg/kg po, 2 hours post-dose
Procedure: Brain tissue following collection was rinsed with cold saline, dried on filter paper, weighed and snap-frozen by placing on dry ice. All samples were stored frozen at approximately −80° C. until analysis. […] Plasma samples were treated with the identical method (except homogenization step) and concentration of compound in either matrix was calculated based on the generated standard curves.

[2] = MTT Cell Proliferation Assay (CellTiter 96 AQueous One Solution, MTS); format: cell-based; conditions: human; 72 h treatment; cell line not given; read-out: Cytotoxicity [IC50]
Text: The CellTiter 96® AQueous One Solution cell proliferation assay (Promega) was used on MM1.S, Jurkat and HCT-116 cells to study the cytotoxic and cytostatic properties of the compounds. The assay is based on the cleavage of the tetrazolium salt, MTS, in the presence of an electron-coupling reagent PES (phenazine ethosulfate). The MTS tetrazolium compound is bioreduced by cells into a colored formazan product that is soluble in tissue culture medium. This conversion is presumably accomplished by NADPH or NADH produced by dehydrogenase enzymes in metabolically active cells. Assays are performed by adding a small amount of the CellTiter 96® AQueous One solution reagent directly to culture wells, incubating for 1-4 hours and then recording the absorbance at 490 nm with a 96-well plate reader. […] The cells were seeded at 5×10^3 to 1.5×10^4 cells (depending on cell type) in each well of 96-well plate in 100 μL of fresh culture medium and adherent cells were allowed to attach for overnight. The stock solutions of the compounds were diluted in cell culture medium to obtain eight concentrations of each drug, ranging from 1 nM to 30 μM and DMSO at less than 1% v/v was used as a negative control. After 72 h of treatment 20 μl of CellTiter 96® AQueous reagent was added into each well of the 96-well assay plates and the plate was incubate at 37° C. for 1-4 hours in a humidified, 5% CO2 atmosphere. Then the absorbance of each well was recorded at 490 nm by using a 96-well plate reader. In most cases the assay was performed in triplicates and the results were presented as half maximal inhibitory concentration (IC50) described below. Optical density versus compound concentration was plotted and analyzed using non linear regression equations (Excel Fit) and the IC50 for each compound was calculated.

[3] = Pharmacokinetics (plasma AUC) in mice; format: in vivo; conditions: mouse, 10 mg/kg po
Procedure: Blood was collected from mice (N=3) to contribute to the total of 10 time points (pre-dose, 5 min, 15 min, 30 min, 1 hour, 2 hours, 4 hours, 8 hours, 12 hours and 24 hours post dose). Mice were bled on a rotating basis, each mouse contributing 3 time points to the blood collection. At the designated time points, animals were anaesthetized under isoflurane, and approximately 110 μL of blood per time point was collected via retro-orbital puncture into pre-cooled K2EDTA (anti-coagulant) tubes. Blood samples were put on wet ice and centrifuged (2000 g, 5 min at 4° C.) to obtain plasma within 30 minutes of sample collection. All samples were stored frozen at approximately −80° C. until analysis. Prior to analysis, samples were mixed with internal standard (dexamethasone) in acetonitrile, vortexed, centrifuged, and supernatant was injected for analysis. Concentration of compounds in plasma was determined using LC-MS-MS instrumentation (API 4000, Triple Quadruple with electrospray ionization; Acuity Ultra Performance Liquid Chromatography column C18, with MeOH and formic acid as organic solvents). PK parameters including but not limited to Tmax, Cmax, t1/2, AUClast, AUCinf were calculated using WinNonlin Professional 6.2 software package, non-compartmental pharmacokinetic model NCA200.

MOG-induced EAE = test: MOG-induced experimental autoimmune encephalomyelitis (EAE) murine model; format: in vivo, C57B1/6J mice; conditions: Compound 1 7.5 mg/kg p.o. from day 11, Monday, Wednesday and Friday, 3 weeks
Procedure: The EAE Model is an accepted model for the study of human CNS demyelinating diseases such as multiple sclerosis. The effects of Compound 1 were investigated in MOG-induced in an EAE murine model in female C57B1/6J mice. […] Compound 1 at 7.5 mg/kg was administered orally starting from day 11 (disease onset) on Monday, Wednesday and Friday for 3 consecutive weeks. The disease was induced by the single intradermal injection of MOG emulsified in Complete Freund's Adjuvant (CFA) on study day 0, followed by intraperitoneal supplemental immunostimulation with pertussis toxin (PT) carried out on study day 0, and again 48 hours later on study day 2.

[4] = system: BCCI injury to the medial frontal cortex; test: Morris Water Maze after bilateral controlled cortical impact (BCCI) injury in rats; format: in vivo, Sprague Dawley rats
Procedure: Bilateral controlled cortical impact (BCCI) injury to the medial frontal cortex (MFC) of male Sprague Dawley rats was induced by a cortical contusion device. After CCI any cortical surface hemorrhaging was controlled, and the fascia and scalp were sutured. Sham-operated rats were anesthetized, mounted in the stereotaxic apparatus, and a craniotomy was performed.
Compound 10.2, 0.4, and 0.6 mg/mL was suspended in vehicle (0.6% w/v Pluronic® F-68 and 0.6% w/v PVP K-29/32 in water) and administered p.o at a concentration of 10 mL/kg, 16 h before injury and 2 h after injury, and administrations were continued for 4 days. Control rats received equivalent injections of the vehicle for Compound 1, at the same time points.
The Morris Water Maze (MWM) test is a spatial navigation task that measures learning and memory in rodents using visual cues. Subjects learn over the course of days to find a hidden platform. A MWM test was conducted two weeks after injury. Male Sprague Dawley rats were allowed to swim in the pool until they reached the platform located in the southwest quadrant of a tank, or until 90 seconds had elapsed. Behavior was tracked by a video camera hanging from above the pool and recorded and analyzed using video track software (ANY-maze).

obese Zucker rats = test: Food intake and body weight in Zucker rats; format: in vivo
Procedure: Twenty-one (21) male Zucker rats aged 7 months were allocated into 3 groups of N=7 based on equivalent body weights and food intakes. An additional group of N=7 age matched Zucker lean controls were included as a control. Body weights and food and water intakes were measured at approximately the same time each day (14:30-15:30 h). On treatment days, dosing was at 14:30-15:30 h (approximately 2 hours before lights off).
The Zucker obese and lean controls were orally treated with vehicle (10 mL/kg dose volume; 0.5% Pluronic F68 and 0.5% PVP K29/32 in water) on each weekday. Both Compound 2 (1.5 mg/kg and 3 mg/kg) groups were orally treated on each weekday (10 mL/kg dose volume; 0.5% Pluronic F68 and 0.5% PVP K29/32 in water). Prior to the treatment phase, 4 days baseline data were collected. The treatment phase was for 16 days and a washout phase of 6 days was also included.

Kp at 2 h [1]	AUC(0-inf) [3] [ng·h/mL]	SMILES	IC50 at 72 h [2] [nM]	disease score and severity (MOG-induced EAE)	days after injury with significant effect on latency ([4]; 4 mg/kg p.o.)	latency to find the hidden platform (MWM acquisition) compared to vehicle-treated BCCI-injured rats ([4]; 2, 4 and 6 mg/kg p.o.)	body weight gain versus Zucker vehicle group (obese Zucker rats; 3 mg/kg oral)	daily food intake and body weight compared to Zucker control group (obese Zucker rats; 1.5-3 mg/kg oral each weekday, 16 day treatment period)
2.25	33100	CC(C)(C)C(=O)NNC(=O)/C=C\n1cnc(-c2cc(C(F)(F)F)cc(C(F)(F)F)c2)n1 [Compound 1, (Z)-3-(3-(3,5-bis(trifluoromethyl)phenyl)-1H-1,2,4-triazol-1-yl)-N′-pivaloylacrylohydrazide]	< 1000	significantly decreased disease score and severity; also recorded: decrease in disease score and severity	18	dose dependent decrease in the latency to find the hidden platform		
0.16	28900	O=C(/C=C\n1cnc(-c2cc(C(F)(F)F)cc(C(F)(F)F)c2)n1)NNC(=O)CN1CCOCC1 [Compound 2, (Z)-3-(3-(3,5-bis(trifluoromethyl)phenyl)-1H-1,2,4-triazol-1-yl)-N′-(2-morpholinoacetyl)acrylohydrazide]	< 1000				lower weight gain in comparison to the Zucker control group	dose-related decrease in daily food intake and body weight; also recorded: dose dependent decrease in daily food effect
